Experimental data as given in PubChem BioAssay (NCI).
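Dose response: 5 concentrations. Exposure: 48 h. Format: 96-well plates. Endpoint: linear interpolation; highest concentration if not reached. GI50 is the concentration that inhibits growth by half. The concentration for full growth arrest is given as TGI.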

These compounds were tested on HOP-92 NSCLC (assay: NCI-60 cell line screen, 48 h).

Q: For `Cn1cc(-c2csc(-c3cn(C)c4ccc(F)cc34)n2)c2cnccc21`, which GI50 is on record?
A: 1.64 µM

Q: What about the TGI of the same compound?
A: 3.26 µM

Q: With `O=C(CBr)c1ccc2cc(Br)c3ccccc3c2c1` as the compound, how does the TGI read?
A: 45.7 µM

Q: Which GI50 does the source give for `COc1ccc(-c2cc(-c3ccc(Nc4ccnc5cc(Cl)ccc45)cc3)nc(N3CCOCC3)n2)cc1` here?
A: 4.83 µM

Q: And the TGI?
A: 49.4 µM

What follows are compounds tested on SK-MEL-2 melanoma (assay: NCI-60 cell line screen, 48 h).

Q: With `Cn1cc(-c2csc(-c3cn(C)c4ccc(F)cc34)n2)c2cnccc21` as the compound, how does the GI50 read?
A: 1.79 µM

Q: And the TGI?
A: 3.38 µM

Q: Which results are given for `COc1cc(OC)c2sc(-c3ccc(-n4cncc4-c4cc(OC)c(OC)c(OC)c4)cc3)nc2c1`?
A: GI50: 6.09 µM; TGI: > 100 µM

Q: Which TGI does the source give for `Cc1cn2c(/C=N/N=C(N)N)c(-c3ccc(Cl)c([N+](=O)[O-])c3)nc2s1` here?
A: 1.6 µM

Q: For `CN(C)CCNc1nc2ccccc2c2c(=O)c3cc(F)ccc3sc12`, which GI50 is on record?
A: 2.05 µM

Q: And the TGI?
A: 4.06 µM

Q: With `O=C(CBr)c1ccc2cc(Br)c3ccccc3c2c1` as the compound, how does the TGI read?
A: 45.1 µM

Q: With `COc1ccc(-c2cc(-c3ccc(Nc4ccnc5cc(Cl)ccc45)cc3)nc(N3CCOCC3)n2)cc1` as the compound, how does the GI50 read?
A: 11.7 µM

Q: And the TGI?
A: 61.5 µM

Each compound was assayed on UACC-257 melanoma (assay: NCI-60 cell line screen, 48 h).

Q: Which GI50 does the source give for `Cn1cc(-c2csc(-c3cn(C)c4ccc(F)cc34)n2)c2cnccc21` here?
A: 1.8 µM

Q: And the TGI?
A: 3.26 µM

Q: `COc1cc(OC)c2sc(-c3ccc(-n4cncc4-c4cc(OC)c(OC)c(OC)c4)cc3)nc2c1` was tested. Which GI50 did it give?
A: > 100 µM

Q: What about the TGI of the same compound?
A: > 100 µM

Q: How did the TGI turn out when `Cc1cn2c(/C=N/N=C(N)N)c(-c3ccc(Cl)c([N+](=O)[O-])c3)nc2s1` was run?
A: > 100 µM

Q: With `CN(C)CCNc1nc2ccccc2c2c(=O)c3cc(F)ccc3sc12` as the compound, how does the GI50 read?
A: 2.12 µM

Q: What about the TGI of the same compound?
A: 4.16 µM

Q: How did the TGI turn out when `O=C(CBr)c1ccc2cc(Br)c3ccccc3c2c1` was run?
A: 49.9 µM

What follows are compounds tested on UACC-62 melanoma (assay: NCI-60 cell line screen, 48 h).

Q: For `Cn1cc(-c2csc(-c3cn(C)c4ccc(F)cc34)n2)c2cnccc21`, which GI50 is on record?
A: 1.74 µM

Q: And the TGI?
A: 3.2 µM

Q: With `COc1cc(OC)c2sc(-c3ccc(-n4cncc4-c4cc(OC)c(OC)c(OC)c4)cc3)nc2c1` as the compound, how does the GI50 read?
A: 4.14 µM

Q: And the TGI?
A: > 100 µM

Q: How did the GI50 turn out when `CN(C)CCNc1nc2ccccc2c2c(=O)c3cc(F)ccc3sc12` was run?
A: 1.73 µM

Q: And the TGI?
A: 3.18 µM

Q: For `O=C(CBr)c1ccc2cc(Br)c3ccccc3c2c1`, which TGI is on record?
A: 29.8 µM

What follows are compounds tested on COLO 205 colon (assay: NCI-60 cell line screen, 48 h).

Q: What does the source list for `COc1cc(OC)c2sc(-c3ccc(-n4cncc4-c4cc(OC)c(OC)c(OC)c4)cc3)nc2c1`?
A: GI50: 4.51 µM; TGI: > 100 µM

Q: How did the TGI turn out when `Cc1cn2c(/C=N/N=C(N)N)c(-c3ccc(Cl)c([N+](=O)[O-])c3)nc2s1` was run?
A: 1.88 µM

Q: `CN(C)CCNc1nc2ccccc2c2c(=O)c3cc(F)ccc3sc12` was tested. Which GI50 did it give?
A: 2.13 µM

Q: And the TGI?
A: 4.86 µM

Q: `O=C(CBr)c1ccc2cc(Br)c3ccccc3c2c1` was tested. Which TGI did it give?
A: > 100 µM

Q: How did the GI50 turn out when `COc1ccc(-c2cc(-c3ccc(Nc4ccnc5cc(Cl)ccc45)cc3)nc(N3CCOCC3)n2)cc1` was run?
A: 3.14 µM

Q: What about the TGI of the same compound?
A: > 100 µM

Each compound was assayed on 786-0 renal (assay: NCI-60 cell line screen, 48 h).

Q: How did the GI50 turn out when `Cn1cc(-c2csc(-c3cn(C)c4ccc(F)cc34)n2)c2cnccc21` was run?
A: 1.51 µM

Q: What about the TGI of the same compound?
A: 2.96 µM

Q: For `COc1cc(OC)c2sc(-c3ccc(-n4cncc4-c4cc(OC)c(OC)c(OC)c4)cc3)nc2c1`, which GI50 is on record?
A: 7.38 µM

Q: What about the TGI of the same compound?
A: > 100 µM

Q: How did the GI50 turn out when `CN(C)CCNc1nc2ccccc2c2c(=O)c3cc(F)ccc3sc12` was run?
A: 1.47 µM

Q: What about the TGI of the same compound?
A: 2.91 µM

Q: Which TGI does the source give for `O=C(CBr)c1ccc2cc(Br)c3ccccc3c2c1` here?
A: > 100 µM

Q: What does the source list for `COc1ccc(-c2cc(-c3ccc(Nc4ccnc5cc(Cl)ccc45)cc3)nc(N3CCOCC3)n2)cc1`?
A: GI50: 2.26 µM; TGI: 5.72 µM

What follows are compounds tested on A498 renal (assay: NCI-60 cell line screen, 48 h).

Q: For `Cn1cc(-c2csc(-c3cn(C)c4ccc(F)cc34)n2)c2cnccc21`, which GI50 is on record?
A: 1.62 µM

Q: What about the TGI of the same compound?
A: 3.04 µM

Q: How did the GI50 turn out when `COc1cc(OC)c2sc(-c3ccc(-n4cncc4-c4cc(OC)c(OC)c(OC)c4)cc3)nc2c1` was run?
A: 1.83 µM

Q: What about the TGI of the same compound?
A: > 100 µM

Q: `COc1ccc(-c2cc(-c3ccc(Nc4ccnc5cc(Cl)ccc45)cc3)nc(N3CCOCC3)n2)cc1` was tested. Which GI50 did it give?
A: 27.5 µM

Q: And the TGI?
A: 86.7 µM

These compounds were tested on RXF 393 renal (assay: NCI-60 cell line screen, 48 h).

Q: Which results are given for `Cn1cc(-c2csc(-c3cn(C)c4ccc(F)cc34)n2)c2cnccc21`?
A: GI50: 1.61 µM; TGI: 3.05 µM

Q: Which results are given for `COc1cc(OC)c2sc(-c3ccc(-n4cncc4-c4cc(OC)c(OC)c(OC)c4)cc3)nc2c1`?
A: GI50: 2.8 µM; TGI: > 100 µM

Q: Which GI50 does the source give for `CN(C)CCNc1nc2ccccc2c2c(=O)c3cc(F)ccc3sc12` here?
A: 1.45 µM

Q: What about the TGI of the same compound?
A: 2.83 µM

Q: `O=C(CBr)c1ccc2cc(Br)c3ccccc3c2c1` was tested. Which TGI did it give?
A: 38.7 µM

Q: `COc1ccc(-c2cc(-c3ccc(Nc4ccnc5cc(Cl)ccc45)cc3)nc(N3CCOCC3)n2)cc1` was tested. Which GI50 did it give?
A: 2.21 µM

Q: And the TGI?
A: 5.35 µM

What follows are compounds tested on SF-539 CNS (assay: NCI-60 cell line screen, 48 h).

Q: Which results are given for `Cn1cc(-c2csc(-c3cn(C)c4ccc(F)cc34)n2)c2cnccc21`?
A: GI50: 1.85 µM; TGI: 3.35 µM

Q: With `COc1cc(OC)c2sc(-c3ccc(-n4cncc4-c4cc(OC)c(OC)c(OC)c4)cc3)nc2c1` as the compound, how does the GI50 read?
A: 8.59 µM

Q: What about the TGI of the same compound?
A: > 100 µM

Q: With `Cc1cn2c(/C=N/N=C(N)N)c(-c3ccc(Cl)c([N+](=O)[O-])c3)nc2s1` as the compound, how does the TGI read?
A: 3.11 µM

Q: Which GI50 does the source give for `CN(C)CCNc1nc2ccccc2c2c(=O)c3cc(F)ccc3sc12` here?
A: 1.67 µM

Q: What about the TGI of the same compound?
A: 3.07 µM

Q: Which TGI does the source give for `O=C(CBr)c1ccc2cc(Br)c3ccccc3c2c1` here?
A: 41.7 µM

The compounds below were run on CAKI-1 renal (assay: NCI-60 cell line screen, 48 h).

Q: What does the source list for `Cn1cc(-c2csc(-c3cn(C)c4ccc(F)cc34)n2)c2cnccc21`?
A: GI50: 1.77 µM; TGI: 3.19 µM

Q: With `Cc1cn2c(/C=N/N=C(N)N)c(-c3ccc(Cl)c([N+](=O)[O-])c3)nc2s1` as the compound, how does the TGI read?
A: > 100 µM

Q: Which GI50 does the source give for `CN(C)CCNc1nc2ccccc2c2c(=O)c3cc(F)ccc3sc12` here?
A: 1.58 µM

Q: What about the TGI of the same compound?
A: 2.93 µM

Q: With `O=C(CBr)c1ccc2cc(Br)c3ccccc3c2c1` as the compound, how does the TGI read?
A: 38 µM

These compounds were tested on NCI-H460 lung (assay: NCI-60 cell line screen, 48 h).

Q: With `Cn1cc(-c2csc(-c3cn(C)c4ccc(F)cc34)n2)c2cnccc21` as the compound, how does the GI50 read?
A: 1.97 µM

Q: What about the TGI of the same compound?
A: 3.71 µM

Q: How did the GI50 turn out when `COc1cc(OC)c2sc(-c3ccc(-n4cncc4-c4cc(OC)c(OC)c(OC)c4)cc3)nc2c1` was run?
A: 4.67 µM

Q: What about the TGI of the same compound?
A: > 100 µM

Q: What does the source list for `CN(C)CCNc1nc2ccccc2c2c(=O)c3cc(F)ccc3sc12`?
A: GI50: 1.79 µM; TGI: 3.42 µM

Q: Which TGI does the source give for `O=C(CBr)c1ccc2cc(Br)c3ccccc3c2c1` here?
A: 54.4 µM

These compounds were tested on NCI/ADR-RES ovarian (assay: NCI-60 cell line screen, 48 h).

Q: Which results are given for `Cn1cc(-c2csc(-c3cn(C)c4ccc(F)cc34)n2)c2cnccc21`?
A: GI50: 2.03 µM; TGI: 4.02 µM

Q: Which GI50 does the source give for `COc1cc(OC)c2sc(-c3ccc(-n4cncc4-c4cc(OC)c(OC)c(OC)c4)cc3)nc2c1` here?
A: 5.65 µM

Q: What about the TGI of the same compound?
A: > 100 µM

Q: For `Cc1cn2c(/C=N/N=C(N)N)c(-c3ccc(Cl)c([N+](=O)[O-])c3)nc2s1`, which TGI is on record?
A: > 100 µM

Q: Which results are given for `CN(C)CCNc1nc2ccccc2c2c(=O)c3cc(F)ccc3sc12`?
A: GI50: 1.63 µM; TGI: 3.06 µM

Q: How did the TGI turn out when `O=C(CBr)c1ccc2cc(Br)c3ccccc3c2c1` was run?
A: > 100 µM

Q: Which results are given for `COc1ccc(-c2cc(-c3ccc(Nc4ccnc5cc(Cl)ccc45)cc3)nc(N3CCOCC3)n2)cc1`?
A: GI50: 3.01 µM; TGI: > 100 µM

These compounds were tested on HOP-62 NSCLC (assay: NCI-60 cell line screen, 48 h).

Q: Which GI50 does the source give for `Cn1cc(-c2csc(-c3cn(C)c4ccc(F)cc34)n2)c2cnccc21` here?
A: 1.92 µM

Q: And the TGI?
A: 3.49 µM

Q: What does the source list for `COc1cc(OC)c2sc(-c3ccc(-n4cncc4-c4cc(OC)c(OC)c(OC)c4)cc3)nc2c1`?
A: GI50: 75.9 µM; TGI: > 100 µM

Q: For `CN(C)CCNc1nc2ccccc2c2c(=O)c3cc(F)ccc3sc12`, which GI50 is on record?
A: 1.89 µM

Q: What about the TGI of the same compound?
A: 3.93 µM

Q: Which TGI does the source give for `O=C(CBr)c1ccc2cc(Br)c3ccccc3c2c1` here?
A: > 100 µM

Each compound was assayed on NCI-H226 lung (assay: NCI-60 cell line screen, 48 h).

Q: How did the GI50 turn out when `Cn1cc(-c2csc(-c3cn(C)c4ccc(F)cc34)n2)c2cnccc21` was run?
A: 2.05 µM

Q: And the TGI?
A: 4.26 µM

Q: `CN(C)CCNc1nc2ccccc2c2c(=O)c3cc(F)ccc3sc12` was tested. Which GI50 did it give?
A: 1.61 µM

Q: And the TGI?
A: 3.14 µM

Q: `O=C(CBr)c1ccc2cc(Br)c3ccccc3c2c1` was tested. Which TGI did it give?
A: 33.6 µM
